Source: patent publication US20230201238A1, “THERAPEUTIC AGENT FOR AN RNA VIRUS INFECTION COMPRISING A COMBINATION OF A PYRAZINE DERIVATIVE AND A THIOPURINE DERIVATIVE” (priority 2020, published 2023)
Like-named read-outs stand apart in the source and are kept apart here.

What was measured:
[1] = test system: influenza virus (PR/8/34 (H1N1)); assay type: cell-based; details: for IC50: Vero cells, 2 days, read-out: The 50% CPE inhibitory concentration of T-705
[2] = test system: Vero cells; details: with T-705

| Compound | CPE inhibitory effect ([1]; 6-methylmercaptopurine riboside 10 μM alone) | Effect on intracellular T-705RTP amount after T-705 treatment [2] | IC50 ([1]; T-705 alone (6-methylmercaptopurine 0 μM)) | 50% CPE inhibitory concentration of T-705 in combination compared to T-705 alone ([1]; in combination with 6-methylmercaptopurine riboside) | IC50 ([1]; with 6-methylmercaptopurine 0.1 μM) | IC50 ([1]; with 6-methylmercaptopurine 0.3 μM) | IC50 ([1]; with 6-methylmercaptopurine 1 μM) | IC50 ([1]; with 6-methylmercaptopurine 3 μM) | IC50 ([1]; with 6-methylmercaptopurine 10 μM) |
| --- | --- | --- | --- | --- | --- | --- | --- | --- | --- |
| CSc1ncnc2c1ncn2[C@@H]1O[C@H](CO)[C@@H](O)[C@H]1O [6-methylmercaptopurine riboside] | did not show a CPE inhibitory effect | increased |  |  |  |  |  |  |  |
| NC(=O)c1nc(F)cnc1O [T-705] |  |  | 183 µM | lower | 89.4 µM | 48.9 µM | 30.6 µM | 21.9 µM | 20.2 µM |
